What is called pIC50 is the negative decadic logarithm of the IC50, by convention in mol/L.

pIC50: −log10 of the molar value.

One test concerns the target LRRK2 wild type enzyme (Homo sapiens, UniProt Q5S007). As to the kind of experiment: Biochemical Assay: LRRK2 TR-FRET (LanthaScreen) kinase assay with LRRKtide substrate. To be noted: LRRK2 Inhibition, Table 8. In outline: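 Human wild-type LRRK2 (3 nM) preincubated 15 min with compound (11-point, 3-fold, top 10 μM), then reacted 120 min at 23 °C with 400 nM LRRKtide and 25 μM ATP, pH 8.0. Stopped with EDTA; Tb-anti-pLRRKtide TR-FRET read after 30 min.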
On the technique in general: TR-FRET usually uses a lanthanide donor and a delayed reading to cut background.

The target of test [1] is T1, wild type LRRK2 overexpressed in recombinant HEK-293T cells (Homo sapiens, UniProt Q5S007).
T1 construct: host or cells: HEK293T (transient transfection with pCMV-LRRK2 WT plasmid)
The test can be described thus: pS935 LRRK2 Cell Assay (HTRF, phospho-LRRK2 Ser935). In kind it is cell-based. As to conditions: LRRK2 Inhibition, Table 8, 2 hours compound incubation. In outline: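 HEK-293T cells transiently transfected with wild-type LRRK2 for 24 h, plated overnight, then treated 2 h at 37° C with compound (top 10 μM, 3-fold, 9 doses, duplicates, 0.2% DMSO). Lysates probed overnight at 23° C by sandwich HTRF for pSer935; 665/615 nm ratio read.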

LRRK2 wild type enzyme, sequence (Q5S007 whole entry): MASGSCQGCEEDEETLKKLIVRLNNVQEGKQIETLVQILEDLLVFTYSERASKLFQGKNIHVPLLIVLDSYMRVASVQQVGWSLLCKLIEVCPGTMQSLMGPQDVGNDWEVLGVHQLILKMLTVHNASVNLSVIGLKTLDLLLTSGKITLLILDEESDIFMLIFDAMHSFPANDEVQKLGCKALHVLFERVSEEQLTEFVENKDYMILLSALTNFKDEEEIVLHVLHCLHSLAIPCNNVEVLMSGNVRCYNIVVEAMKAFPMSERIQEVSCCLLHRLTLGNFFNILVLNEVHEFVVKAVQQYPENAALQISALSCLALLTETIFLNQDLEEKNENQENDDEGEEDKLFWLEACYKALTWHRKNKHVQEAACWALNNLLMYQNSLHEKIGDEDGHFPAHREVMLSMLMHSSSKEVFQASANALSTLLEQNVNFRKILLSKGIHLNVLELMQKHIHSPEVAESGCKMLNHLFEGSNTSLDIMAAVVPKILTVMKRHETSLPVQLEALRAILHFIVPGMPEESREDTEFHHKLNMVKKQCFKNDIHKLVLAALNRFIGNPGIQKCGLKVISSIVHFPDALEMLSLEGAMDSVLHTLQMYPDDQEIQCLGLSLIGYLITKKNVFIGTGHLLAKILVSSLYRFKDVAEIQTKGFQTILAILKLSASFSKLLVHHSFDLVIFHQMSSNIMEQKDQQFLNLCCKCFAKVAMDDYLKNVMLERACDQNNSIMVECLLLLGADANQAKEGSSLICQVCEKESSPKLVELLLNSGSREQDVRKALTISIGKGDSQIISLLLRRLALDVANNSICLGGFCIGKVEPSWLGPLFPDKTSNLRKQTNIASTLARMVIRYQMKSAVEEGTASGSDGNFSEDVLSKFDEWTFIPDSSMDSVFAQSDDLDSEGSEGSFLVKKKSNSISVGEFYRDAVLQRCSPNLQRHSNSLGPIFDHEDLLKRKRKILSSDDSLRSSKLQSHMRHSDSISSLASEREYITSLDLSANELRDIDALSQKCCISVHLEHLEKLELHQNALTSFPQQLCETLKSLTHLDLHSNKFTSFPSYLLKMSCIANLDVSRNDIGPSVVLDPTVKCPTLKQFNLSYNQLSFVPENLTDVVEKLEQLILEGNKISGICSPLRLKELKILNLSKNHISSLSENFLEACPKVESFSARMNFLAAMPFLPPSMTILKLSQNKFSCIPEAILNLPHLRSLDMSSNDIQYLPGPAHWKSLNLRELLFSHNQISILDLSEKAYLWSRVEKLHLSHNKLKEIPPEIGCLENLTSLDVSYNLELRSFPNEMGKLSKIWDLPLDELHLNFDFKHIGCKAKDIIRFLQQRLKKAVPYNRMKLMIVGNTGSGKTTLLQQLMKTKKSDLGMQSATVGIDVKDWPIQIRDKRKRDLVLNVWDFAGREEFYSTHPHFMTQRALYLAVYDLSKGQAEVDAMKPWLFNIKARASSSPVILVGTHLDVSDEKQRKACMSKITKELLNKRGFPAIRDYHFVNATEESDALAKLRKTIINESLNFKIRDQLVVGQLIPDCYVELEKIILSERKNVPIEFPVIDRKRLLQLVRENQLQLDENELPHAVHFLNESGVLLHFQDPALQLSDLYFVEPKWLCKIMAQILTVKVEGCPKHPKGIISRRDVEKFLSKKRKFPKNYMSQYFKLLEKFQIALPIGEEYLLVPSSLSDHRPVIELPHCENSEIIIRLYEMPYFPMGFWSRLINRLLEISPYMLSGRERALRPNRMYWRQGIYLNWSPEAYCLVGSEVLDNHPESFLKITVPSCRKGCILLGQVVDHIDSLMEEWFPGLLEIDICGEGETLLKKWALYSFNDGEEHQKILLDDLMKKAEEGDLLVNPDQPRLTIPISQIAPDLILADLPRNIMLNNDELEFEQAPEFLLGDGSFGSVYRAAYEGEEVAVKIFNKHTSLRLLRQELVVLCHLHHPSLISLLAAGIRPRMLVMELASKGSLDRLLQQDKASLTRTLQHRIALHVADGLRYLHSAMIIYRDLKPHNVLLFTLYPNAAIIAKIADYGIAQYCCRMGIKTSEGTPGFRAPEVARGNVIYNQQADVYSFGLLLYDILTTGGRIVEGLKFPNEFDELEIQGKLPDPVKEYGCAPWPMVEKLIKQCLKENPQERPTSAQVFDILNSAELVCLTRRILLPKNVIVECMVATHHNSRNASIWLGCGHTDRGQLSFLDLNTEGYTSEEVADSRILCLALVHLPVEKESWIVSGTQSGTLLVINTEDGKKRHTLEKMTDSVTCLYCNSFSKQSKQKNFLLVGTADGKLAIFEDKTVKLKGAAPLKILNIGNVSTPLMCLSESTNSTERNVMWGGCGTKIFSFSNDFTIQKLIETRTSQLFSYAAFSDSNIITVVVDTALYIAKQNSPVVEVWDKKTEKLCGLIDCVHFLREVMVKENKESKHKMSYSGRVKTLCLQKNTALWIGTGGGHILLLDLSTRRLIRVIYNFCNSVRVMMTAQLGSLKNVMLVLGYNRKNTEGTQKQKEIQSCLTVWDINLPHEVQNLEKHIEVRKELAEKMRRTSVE
T1 sequence (Q5S007 whole entry): as above

For `C[C@@H]1C[C@H](n2c(C3CCN(C(=O)c4cnn(C)c4)CC3)nc3cnc4ccc(C#N)cc4c32)CCO1` [Compound 118, 2-[1-(1-methyl-1H-pyrazole-4-carbonyl)piperidin-4-yl]-1-[(2R,4R)-2-methyloxan-4-yl]-1H-imidazo[4,5-c]quinoline-8-carbonitrile], the negative logarithm of the IC50 (pIC50) against LRRK2 wild type enzyme is 9.07; in test [1], 6.48.
For `C[C@@H]1C[C@H](n2c(CN3CCC(C(=O)O)C3)nc3cnc4ccc(C#N)cc4c32)CCO1` (stereo partly drawn) [Compound 77, 1-({8-cyano-1-[(2R,4R)-2-methyloxan-4-yl]-1H-imidazo[4,5-c]quinolin-2-yl}methyl)pyrrolidine-3-carboxylic acid] the same measures were 7.47 and 5.29.
As for `C[C@@H]1C[C@H](n2c(CC(=O)Nc3cc(C(F)(F)F)no3)nc3cnc4ccc(C#N)cc4c32)CCO1` [Compound 342, N-[3-(trifluoromethyl)-5-isoxazolyl]{3-[(2R,4R)-2-methyltetrahydro-2H-pyran-4-yl]-12-cyano-3,5,8-triazatricyclo[7.4.0.0^2,6]trideca-1(9),2(6),4,7,10,12-hexaen-4-yl}acetamide], the pIC50 at LRRK2 wild type enzyme was 8.66; in test [1], 7.12.
As for `C[C@@H]1C[C@H](n2c(CC(=O)Nc3nccc(C4CC4)n3)nc3cnc4ccc(C#N)cc4c32)CCO1` [Compound 338, N-(4-cyclopropyl-2-pyrimidinyl){3-[(2R,4R)-2-methyltetrahydro-2H-pyran-4-yl]-12-cyano-3,5,8-triazatricyclo[7.4.0.0^2,6]trideca-1(9),2(6),4,7,10,12-hexaen-4-yl}acetamide], the results for the pIC50 (against LRRK2 wild type enzyme; in test [1]) were 9.44 and 8.73, respectively.
For `CC(C)n1cc(NC(=O)Cc2nc3cnc4ccc(C#N)cc4c3n2[C@@H]2CCO[C@H](C)C2)cn1` [Compound 306, N-(1-isopropyl-4-pyrazolyl){3-[(2R,4R)-2-methyltetrahydro-2H-pyran-4-yl]-12-cyano-3,5,8-triazatricyclo[7.4.0.0^2,6]trideca-1(13),2(6),4,7,9,11-hexaen-4-yl}acetamide] the same measures were 9.14 and 7.80.
On to `C[C@@H]1C[C@H](n2c(CC(=O)Nc3cnoc3)nc3cnc4ccc(Cl)cc4c32)CCO1` [Compound 313], for which the pIC50 against LRRK2 wild type enzyme was 9.14; in test [1], 8.15.
For `C[C@@H]1C[C@H](n2c([C@@H]3CN(CC4CC4)S(=O)(=O)C3)nc3cnc4ccc(C#N)cc4c32)CCO1` [Compound 1, 2-[(4S)-2-(cyclopropylmethyl)-1,1-dioxo-1X^6,2-thiazolidin-4-yl]-1-[(2R,4R)-2-methyloxan-4-yl]-1H-imidazo[4,5-c]quinoline-8-carbonitrile] the same measures were 8.61 and 6.77.
Take `C[C@@H]1C[C@H](n2c(CC(=O)Nc3ccc(F)nc3)nc3cnc4ccc(C#N)cc4c32)CCO1` [Compound 299, N-(6-fluoro-3-pyridyl){3-[(2R,4R)-2-methyltetrahydro-2H-pyran-4-yl]-12-cyano-3,5,8-triazatricyclo[7.4.0.0^2,6]trideca-1,4,6,8,10,12-hexaen-4-yl}acetamide]: the pIC50 is 9.41 at LRRK2 wild type enzyme and 7.98 in test [1].
As for `C[C@@H]1C[C@H](n2c(CC(=O)Nc3cnn(C)c(=O)c3)nc3cnc4ccc(Cl)cc4c32)CCO1` [Compound 206, N-(1-methyl-6-oxo-1,6-dihydro-4-pyridazinyl){3-[(2R,4R)-2-methyltetrahydro-2H-pyran-4-yl]-12-chloro-3,5,8-triazatricyclo[7.4.0.0^2,6]trideca-1,4,6,8,10,12-hexaen-4-yl}acetamide], the pIC50 at LRRK2 wild type enzyme is 9.32; in test [1], 8.08.
Regarding `C[C@@H]1C[C@H](n2c(C3CC(=O)N([C@H]4CCCOC4)C3)nc3cnc4ccc(C#N)cc4c32)CCO1` (stereo partly drawn) [Compound 52, 1-[(2R,4R)-2-methyloxan-4-yl]-2-{1-[(3S)-oxan-3-yl]-5-oxopyrrolidin-3-yl}-1H-imidazo[4,5-c]quinoline-8-carbonitrile], the figures for the pIC50 (against LRRK2 wild type enzyme; in test [1]) were 8.54 and 6.40, respectively.
For `C[C@@H]1C[C@H](n2c(C3CC(=O)N(c4cnn(C)c4)C3)nc3cnc4ccc(Cl)cc4c32)CCO1` (stereo partly drawn) [Compound 108, 4-{8-chloro-1-[(2R,4R)-2-methyloxan-4-yl]-1H-imidazo[4,5-c]quinolin-2-yl}-1-(1-methyl-1H-pyrazol-4-yl)pyrrolidin-2-one], the results for the negative logarithm of the IC50 (pIC50) (against LRRK2 wild type enzyme; in test [1]) were 9.01 and 7.37, respectively.
For `COc1cc(F)ncc1NC(=O)Cc1nc2cnc3ccc(C#N)cc3c2n1[C@@H]1CCO[C@H](C)C1` [Compound 230, N-(6-fluoro-4-methoxy-3-pyridyl){3-[(2R,4R)-2-methyltetrahydro-2H-pyran-4-yl]-12-cyano-3,5,8-triazatricyclo[7.4.0.0^2,6]trideca-1,4,6,8,10,12-hexaen-4-yl}acetamide], the negative-log IC50 (pIC50) against LRRK2 wild type enzyme was 9.35; in test [1] it was 8.31.
`C[C@@H]1C[C@H](n2c(CC(=O)N[C@@H]3C[C@@H]3F)nc3cnc4ccc(C#N)cc4c32)CCO1` [Compound 290, N-[(1R,2S)-2-fluorocyclopropyl]{3-[(2R,4R)-2-methyltetrahydro-2H-pyran-4-yl]-12-cyano-3,5,8-triazatricyclo[7.4.0.0^2,6]trideca-1,4,6,8,10,12-hexaen-4-yl}acetamide]: the pIC50 against LRRK2 wild type enzyme was 9.25; in test [1] it was 7.48.
As to `C[C@@H]1C[C@H](n2c(CC(=O)NCCC(F)(F)F)nc3cnc4ccc(C#N)cc4c32)CCO1` [Compound 167, 2-{8-cyano-1-[(2R,4R)-2-methyloxan-4-yl]-1H-imidazo[4,5-c]quinolin-2-yl}-N-(3,3,3-trifluoropropyl)acetamide], the results for the negative-log IC50 (pIC50) (at LRRK2 wild type enzyme; in test [1]) were 9.20 and 7.34, respectively.
As for `C[C@@H]1C[C@H](n2c([C@H]3CNC(=O)C3)nc3cnc4ccc(C#N)cc4c32)CCO1` [Compound 72, 1-[(2R,4R)-2-methyloxan-4-yl]-2-[(3R)-5-oxopyrrolidin-3-yl]-1H-imidazo[4,5-c]quinoline-8-carbonitrile], the results for the pIC50 (at LRRK2 wild type enzyme; in test [1]) were 8.73 and 5.44, respectively.
Consider `C[C@@H]1C[C@H](n2c(CC(=O)NCCCO)nc3cnc4ccc(C#N)cc4c32)CCO1` [Compound 181, 2-{8-cyano-1-[(2R,4R)-2-methyloxan-4-yl]-1H-imidazo[4,5-c]quinolin-2-yl}-N-(3-hydroxypropyl)acetamide], for which the pIC50 is 9.24 against LRRK2 wild type enzyme and 6.42 in test [1].
On to `C[C@@H]1C[C@H](n2c(CC(=O)NC3CCCCC3)nc3cnc4ccc(C#N)cc4c32)CCO1` [Compound 309, N-cyclohexyl{3-[(2R,4R)-2-methyltetrahydro-2H-pyran-4-yl]-12-cyano-3,5,8-triazatricyclo[7.4.0.0^2,6]trideca-1,4,6,8,10,12-hexaen-4-yl}acetamide], for which the results for the pIC50 (at LRRK2 wild type enzyme; in test [1]) were 9.20 and 7.84, respectively.
On to `Cc1cccc(CNC(=O)Cc2nc3cnc4ccc(C#N)cc4c3n2[C@@H]2CCO[C@H](C)C2)n1` [Compound 152, 2-{8-cyano-1-[(2R,4R)-2-methyloxan-4-yl]-1H-imidazo[4,5-c]quinolin-2-yl}-N-[(6-methylpyridin-2-yl)methyl]acetamide], for which the figures for the pIC50 (against LRRK2 wild type enzyme; in test [1]) were 9.50 and 8.47, respectively.
Turning to `COc1nc(C2CC2)ncc1NC(=O)Cc1nc2cnc3ccc(C#N)cc3c2n1[C@@H]1CCO[C@H](C)C1` [Compound 255, N-(2-cyclopropyl-4-methoxy-5-pyrimidinyl){3-[(2R,4R)-2-methyltetrahydro-2H-pyran-4-yl]-12-cyano-3,5,8-triazatricyclo[7.4.0.0^2,6]trideca-1,4,6,8,10,12-hexaen-4-yl}acetamide], the pIC50 against LRRK2 wild type enzyme is 9.36; in test [1] it was 8.41.
For `C[C@@H]1C[C@H](n2c([C@@H]3CCN(C(=O)C4CC4)C3)nc3cnc4ccc(C#N)cc4c32)CCO1` [Compound 40, 2-[(3R)-1-cyclopropanecarbonylpyrrolidin-3-yl]-1-[(2R,4R)-2-methyloxan-4-yl]-1H-imidazo[4,5-c]quinoline-8-carbonitrile] the same measures were 8.04 and 6.16.
`C[C@@H]1C[C@H](n2c(CC(=O)NC3CC3F)nc3cnc4ccc(C#N)cc4c32)CCO1` (stereo in doubt) [Compound 245, N-[(1R,2R)-2-fluorocyclopropyl]{3-[(2R,4R)-2-methyltetrahydro-2H-pyran-4-yl]-12-cyano-3,5,8-triazatricyclo[7.4.0.0^2,6]trideca-1(13),2(6),4,7,9,11-hexaen-4-yl}acetamide]: the pIC50 is 9.02 at LRRK2 wild type enzyme and 7.15 in test [1].
As to `C[C@@H]1C[C@H](n2c(CC(=O)N(C)C)nc3cnc4ccc(C#N)cc4c32)CCO1` [Compound 9, 2-{8-cyano-1-[(2R,4R)-2-methyloxan-4-yl]-1H-imidazo[4,5-c]quinolin-2-yl}-N,N-dimethylacetamide], the pIC50 is 8.20 at LRRK2 wild type enzyme and 6.22 in test [1].
On the same counts, the results for `CC(C)NC(=O)Cc1nc2cnc3ccc(C#N)cc3c2n1[C@@H]1CCO[C@H](C)C1` [Compound 14, 2-{8-cyano-1-[(2R,4R)-2-methyloxan-4-yl]-1H-imidazo[4,5-c]quinolin-2-yl}-N-(propan-2-yl)acetamide] are 8.15 and 7.36.
As for `C[C@@H]1C[C@H](n2c(CC(=O)Nc3ccn(C4CC4)n3)nc3cnc4ccc(C#N)cc4c32)CCO1` [Compound 354, N-(1-cyclopropyl-3-pyrazolyl){3-[(2R,4R)-2-methyltetrahydro-2H-pyran-4-yl]-12-cyano-3,5,8-triazatricyclo[7.4.0.0^2,6]trideca-1(9),2(6),4,7,10,12-hexaen-4-yl}acetamide], the negative-log IC50 (pIC50) on LRRK2 wild type enzyme was 9.35; in test [1], 7.83.

These data come from patent publication US20250270209A1 (INTERLINE THERAPEUTICS, INC., priority 2022, published 2025).
